Measurements taken from patent US8530493B2, “Indolopyridines as Eg5 kinesin modulators” (4SC AG, priority 2006, dated 2013).

Assays:
[1] = system: RKO p27 or p21 uninduced (proliferating) colon adenocarcinoma cells; assay: Alamar Blue cell viability assay, RKO p27 or p21 uninduced (proliferating); assay type: cell-based; conditions: Homo sapiens, RKOp27, 72 h, Table B2, anti-proliferative/cytotoxic activity, read-out: −log EC50 RKO p27 or p21 uninduced (proliferating) (converted)
Method in brief: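 Viability read by Alamar Blue fluorescence (ex 544, em 590 nm), normalised to untreated wells, after 72 h, 37° C, 5% CO2 compound exposure in triplicate. Cells were uninduced (no Ponasterone A), proliferating RKO colon carcinoma p27 or p21 subclones in DMEM with 10% FCS; values are −log EC50 (mol/l).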

[2] = system: RKO p27 or p21 induced (arrested) colon adenocarcinoma cells; assay: Alamar Blue cell viability assay, RKO p27 or p21 induced (arrested); assay type: cell-based; conditions: Homo sapiens, RKOp27, Table B2, cells arrested by Ponasterone A, 72 hours, read-out: −log EC50 RKO p27 or p21 induced (arrested) (converted)
Method in brief: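 RKOp21 or RKOp27 subclones in DMEM/10% FCS with 10 μM Ponasterone A to induce p21/p27 arrest, seeded 24 h before compound; triplicate 72 h exposure at 37 °C. Alamar Blue fluorescence (544/590 nm) as % of untreated (1% DMSO) cells; EC50 from dose-response curves, reported as −log EC50 (mol/l).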

EC50 [2] [µM] | Compound | EC50 [1] [µM]
≥ 0.316 | C#CCN(C)CCN1C(=O)N2[C@H](c3cccc(O)c3)c3[nH]c4ccc(Cl)cc4c3C[C@@]2(C)C1=O (racemic) [Example 116, (3aSR,10RS)-6-Chloro-10-(3-hydroxy-phenyl)-3a-methyl-2-[2-(methyl-prop-2-ynyl-amino)-ethyl]-3a,4,9,10-tetrahydro-2,9,10a-triaza-cyclopenta[b]fluorene-1,3-dione] | 0.0398 to 0.251
≥ 0.316 | C=CCN(C)CCN1C(=O)N2[C@H](c3cccc(O)c3)c3[nH]c4ccc(Cl)cc4c3C[C@@]2(C)C1=O (racemic) [Example 117, (3aSR,10RS)-2-[2-(Allyl-methyl-amino)-ethyl]-6-chloro-10-(3-hydroxy-phenyl)-3a-methyl-3a,4,9,10-tetrahydro-2,9,10a-triaza-cyclopenta[b]fluorene-1,3-dione] | ≤ 0.0398
≥ 0.316 | COc1ccc2[nH]c3c(c2c1)C[C@@]1(C)C(=O)N(CCN(C)CCO)C(=O)N1[C@@H]3c1cccc(O)c1 (racemic) [Example 118, (3aSR,10RS)-2-{2-[(2-Hydroxy-ethyl)-methyl-amino]-ethyl}-10-(3-hydroxy-phenyl)-6-methoxy-3a-methyl-3a,4,9,10-tetrahydro-2,9,10a-triaza-cyclopenta[b]fluorene-1,3-dione] | ≤ 0.0398
≥ 0.316 | COc1ccc2[nH]c3c(c2c1)C[C@@]1(C)C(=O)N(CCN2CC=CC2)C(=O)N1[C@@H]3c1cccc(O)c1 (racemic) [Example 119, (3aSR,10RS)-2-[2-(2,5-Dihydro-pyrrol-1-yl)-ethyl]-10-(3-hydroxy-phenyl)-6-methoxy-3a-methyl-3a,4,9,10-tetrahydro-2,9,10a-triaza-cyclopenta[b]fluorene-1,3-dione] | ≤ 0.0398
≥ 0.316 | C[C@@]12Cc3c([nH]c4ccc(Cl)cc34)[C@@H](c3cccc(O)c3)N1C(=O)N(CCN1CCOCC1)C2=O (racemic) [Example 120, (3aSR,10RS)-6-Chloro-10-(3-hydroxy-phenyl)-3a-methyl-2-(2-morpholin-4-ylethyl)-3a,4,9,10-tetrahydro-2,9,10a-triaza-cyclopenta[b]fluorene-1,3-dione] | 0.0398 to 0.251
≥ 0.316 | CCN(CCOC)CCN1C(=O)N2[C@H](c3cccc(O)c3)c3[nH]c4ccc(Cl)cc4c3C[C@@]2(C)C1=O (racemic) [Example 121, (3aSR,10RS)-6-Chloro-2-{2-[ethyl-(2-methoxy-ethyl)-amino]-ethyl}-10-(3-hydroxy-phenyl)-3a-methyl-3a,4,9,10-tetrahydro-2,9,10a-triaza-cyclopenta[b]fluorene-1,3-dione] | 0.0398 to 0.251
≥ 0.316 | C[C@@]12Cc3c([nH]c4ccc(Cl)cc34)[C@@H](c3cccc(O)c3)N1C(=O)N(CCNCC(F)F)C2=O (racemic) [Example 123, (3aSR,10RS)-6-Chloro-2-[2-(2,2-difluoro-ethylamino)-ethyl]-10-(3-hydroxy-phenyl)-3a-methyl-3a,4,9,10-tetrahydro-2,9,10a-triaza-cyclopenta[b]fluorene-1,3-dione] | 0.0398 to 0.251
≥ 0.316 | CCN(CCO)CCN1C(=O)N2[C@H](c3cccc(O)c3)c3[nH]c4ccc(Cl)cc4c3C[C@@]2(C)C1=O (racemic) [Example 124, (3aSR,10RS)-6-Chloro-2-{2-[ethyl-(2-hydroxy-ethyl)-amino]-ethyl}-10-(3-hydroxy-phenyl)-3a-methyl-3a,4,9,10-tetrahydro-2,9,10a-triaza-cyclopenta[b]fluorene-1,3-dione] | ≤ 0.0398
≥ 0.316 | Cn1ccc(NCCN2C(=O)N3[C@H](c4cccc(O)c4)c4[nH]c5ccc(Cl)cc5c4C[C@@]3(C)C2=O)n1 (racemic) [Example 125, (3aSR,10RS)-6-Chloro-10-(3-hydroyx-phenyl)-3a-methyl-2-[2-(1-methyl-1H-pyrazol-3-ylamino)-ethyl]-3a,4,9,10-tetrahydro-2,9,10a-triaza-cyclopenta[b]fluorene-1,3-dione] | 0.0398 to 0.251
≥ 0.316 | CN(CCO)CCN1C(=O)N2[C@H](c3cccc(O)c3)c3[nH]c4ccc(Cl)cc4c3C[C@@]2(C)C1=O (racemic) [Example 126, (3aSR,10RS)-6-Chloro-2-{2-[(2-hydroxy-ethyl)-methyl-amino]-ethyl}-10-(3-hydroxy-phenyl)-3a-methyl-3a,4,9,10-tetrahydro-2,9,10a-triaza-cyclopenta[b]fluorene-1,3-dione] | ≤ 0.0398
≥ 0.316 | C#CCNCCN1C(=O)N2[C@H](c3cccc(O)c3)c3[nH]c4ccc(Cl)cc4c3C[C@@]2(C)C1=O (racemic) [Example 127, (3aSR,10RS)-6-Chloro-10-(3-hydroxy-phenyl)-3a-methyl-2-(2-prop-2-ynylamino-ethyl)-3a,4,9,10-tetrahydro-2,9,10a-triaza-cyclopenta[b]fluorene-1,3-dione] | ≤ 0.0398
≥ 0.316 | COCCNCCN1C(=O)N2[C@H](c3cccc(O)c3)c3[nH]c4ccc(Cl)cc4c3C[C@@]2(C)C1=O (racemic) [Example 128, (3aSR,10RS)-6-Chloro-10-(3-hydroxy-phenyl)-2-[2-(2-methoxy-ethylamino)-ethyl]-3a-methyl-3a,4,9,10-tetrahydro-2,9,10a-triaza-cyclopenta[b]fluorene-1,3-dione] | ≤ 0.0398
≥ 0.316 | C[C@@]12Cc3c([nH]c4ccc(Cl)cc34)[C@@H](c3cccc(O)c3)N1C(=O)N(CCN1CCC(F)(F)C1)C2=O (racemic) [Example 129, (3aSR,10RS)-6-Chloro-2-[2-(3,3-difluoro-pyrrolidin-1-yl)-ethyl]-10-(3-hydroxy-phenyl)-3a-methyl-3a,4,9,10-tetrahydro-2,9,10a-triaza-cyclopenta[b]fluorene-1,3-dione] | 0.0398 to 0.251
≥ 0.316 | CNCCCN1C(=O)N2[C@H](c3cccc(O)c3)c3[nH]c4ccc(Cl)cc4c3C[C@@]2(C)C1=O (racemic) [Example 130, (3aSR,10RS)-6-Chloro-10-(3-hydroxy-phenyl)-3a-methyl-2-(3-methylamino-propyl)-3a,4,9,10-tetrahydro-2,9,10a-triaza-cyclopenta[b]fluorene-1,3-dione] | ≤ 0.0398
≥ 0.316 | CCNCCCN1C(=O)N2[C@H](c3cccc(O)c3)c3[nH]c4ccc(Cl)cc4c3C[C@@]2(C)C1=O (racemic) [Example 131, (3aSR,10RS)-6-Chloro-2-(3-ethylamino-propyl)-10-(3-hydroxy-phenyl)-3a-methyl-3a,4,9,10-tetrahydro-2,9,10a-triaza-cyclopenta[b]fluorene-1,3-dione] | ≤ 0.0398
≥ 0.316 | CN(CCO)CCCN1C(=O)N2[C@H](c3cccc(O)c3)c3[nH]c4ccc(Cl)cc4c3C[C@@]2(C)C1=O (racemic) [Example 132, (3aSR,10RS)-6-Chloro-2-{3-[(2-hydroxy-ethyl)-methyl-amino]-propyl}-10-(3-hydroxy-phenyl)-3a-methyl-3a,4,9,10-tetrahydro-2,9,10a-triaza-cyclopenta[b]fluorene-1,3-dione] | ≤ 0.0398
≥ 0.316 | CC(C)N(C)CCCN1C(=O)N2[C@H](c3cccc(O)c3)c3[nH]c4ccc(Cl)cc4c3C[C@@]2(C)C1=O (racemic) [Example 133, (3aSR,10RS)-6-Chloro-10-(3-hydroxy-phenyl)-2-[3-(isopropyl-methyl-amino)-propyl]-3a-methyl-3a,4,9,10-tetrahydro-2,9,10a-triaza-cyclopenta[b]fluorene-1,3-dione] | ≤ 0.0398
≥ 3.16 | CC(C)CNCCCN1C(=O)N2[C@H](c3cccc(O)c3)c3[nH]c4ccc(Cl)cc4c3C[C@@]2(C)C1=O (racemic) [Example 135, (3aSR,10RS)-6-Chloro-10-(3-hydroxy-phenyl)-2-(3-isobutylamino-propyl)-3a-methyl-3a,4,9,10-tetrahydro-2,9,10a-triaza-cyclopenta[b]fluorene-1,3-dione] | ≤ 0.0398
≥ 3.16 | C#CC(C)NCCCN1C(=O)N2[C@H](c3cccc(O)c3)c3[nH]c4ccc(Cl)cc4c3C[C@@]2(C)C1=O (mixture of isomers) [Example 136, (3aSR,10RS)-6-Chloro-10-(3-hydroxy-phenyl)-3a-methyl-2-[3-((R and S)1-methyl-prop-2-ynylamino)-propyl]-3a,4,9,10-tetrahydro-2,9,10a-triaza-cyclopenta[b]fluorene-1,3-dione] | ≤ 0.0398
≥ 3.16 | CCN(CC)CCCN1C(=O)N2[C@H](c3cccc(O)c3)c3[nH]c4ccc(Cl)cc4c3C[C@@]2(C)C1=O (racemic) [Example 137, (3aSR,10RS)-6-Chloro-2-(3-diethylamino-propyl)-10-(3-hydroxy-phenyl)-3a-methyl-3a,4,9,10-tetrahydro-2,9,10a-triaza-cyclopenta[b]fluorene-1,3-dione] | ≤ 0.0398
≥ 3.16 | C[C@@]12Cc3c([nH]c4ccc(Cl)cc34)[C@@H](c3cccc(O)c3)N1C(=O)N(CCCNC1CCC1)C2=O (racemic) [Example 138, (3aSR,10RS)-6-Chloro-2-(3-cyclobutylamino-propyl)-10-(3-hydroxy-phenyl)-3a-methyl-3a,4,9,10-tetrahydro-2,9,10a-triaza-cyclopenta[b]fluorene-1,3-dione] | ≤ 0.0398
≥ 3.16 | C=CCNCCCN1C(=O)N2[C@H](c3cccc(O)c3)c3[nH]c4ccc(Cl)cc4c3C[C@@]2(C)C1=O (racemic) [Example 139, (3aSR,10RS)-2-(3-Allylamino-propyl)-6-chloro-10-(3-hydroxy-phenyl)-3a-methyl-3a,4,9,10-tetrahydro-2,9,10a-triaza-cyclopenta[b]fluorene-1,3-dione] | ≤ 0.0398
